Source: PubChem BioAssay AID268 (DTP/NCI, 2004)
Values joined by “and” are separate entries in the source; they are usually repeats but may differ in a detail not shown here. Equal values may be shown once.

Tested on: CD2F1 mice, P1798 lymphosarcoma sc, tumor weight T/C
Assay: NCI In Vivo Anticancer Drug Screen. Data for tumor model P1798 Lymphosarcoma (subcutaneous) in CD2F1 (CDF1) mice
Conditions: endpoint: mean tumor weight, higher = larger tumour
Procedure: The antitumor activity of compounds was measured in mice bearing transplantable tumors. Survival or tumor size were measured and the results are expressed as the measurement made in the treated group (T) divided by the measurement made in the vehicle treated control group (C). The tumor model used in this assay is P1798 Lymphosarcoma (subcutaneous) in CD2F1 (CDF1) mice

[1] = dose: 12.5 mg/kg/injection, schedule: Q01DX010 (sc), vehicle: steriod suspending solution
[2] = dose: 0.25 mg/kg/injection, schedule: Q01DX010 (ip), vehicle: saline
[3] = dose: 12.5 mg/kg/injection, schedule: Q01DX010 (ip), vehicle: saline
[4] = dose: 25.0 mg/kg/injection, schedule: Q01DX010 (ip), vehicle: saline
[5] = dose: 50.0 mg/kg/injection, schedule: Q01DX010 (ip), vehicle: saline
[6] = dose: 100.0 mg/kg/injection, schedule: Q01DX010 (ip), vehicle: saline
[7] = dose: 6.25 mg/kg/injection, schedule: Q01DX010 (sc), vehicle: steriod suspending solution
[8] = dose: 200.0 mg/kg/injection, schedule: Q01DX010 (ip), vehicle: saline

SMILES: CC(=O)O[C@]1(C(C)=O)CC[C@H]2[C@@H]3C[C@H](C)C4=CC(=O)C=C[C@]4(C)[C@@]3(F)[C@@H](O)C[C@@]21C
- T/C (dose: 12.5 mg/kg/injection, schedule: Q01DX005 (sc), vehicle: steriod suspending solution): 32 % of control
- T/C [1]: 37 % of control and 39 % of control
- T/C (dose: 25.0 mg/kg/injection, schedule: Q01DX005 (sc), vehicle: steriod suspending solution): 13 % of control
- T/C (dose: 25.0 mg/kg/injection, schedule: Q01DX010 (sc), vehicle: steriod suspending solution): 15 % of control and 16 % of control and 36 % of control
- T/C (dose: 25.0 mg/kg/injection, schedule: Q02DX010 (sc), vehicle: steriod suspending solution): 105 % of control
- T/C (dose: 50.0 mg/kg/injection, schedule: Q01DX005 (sc), vehicle: steriod suspending solution): 1 % of control
- T/C (dose: 50.0 mg/kg/injection, schedule: Q02DX010 (sc), vehicle: steriod suspending solution): 101 % of control
- T/C (dose: 100.0 mg/kg/injection, schedule: Q01DX005 (sc), vehicle: steriod suspending solution): 3 % of control
- T/C (dose: 100.0 mg/kg/injection, schedule: Q02DX010 (sc), vehicle: steriod suspending solution): 105 % of control

SMILES: O[C@H](CN1CC1)[C@@H](O)CN1CC1
- T/C (dose: 62.5 micrograms/kg/injection, schedule: Q01DX010 (ip), vehicle: saline): 76 % of control
- T/C (dose: 125.0 micrograms/kg/injection, schedule: Q01DX010 (ip), vehicle: saline): 62 % of control
- T/C (dose: 250.0 micrograms/kg/injection, schedule: Q01DX010 (ip), vehicle: saline): 45 % of control
- T/C (dose: 500.0 micrograms/kg/injection, schedule: Q01DX010 (ip), vehicle: saline): 31 % of control

SMILES: CC1CC(C)OS(=O)O1 (stereo unspecified)
- T/C (dose: 44.0 mg/kg/injection, schedule: Q01DX010 (ip), vehicle: saline): 70 % of control
- T/C (dose: 66.0 mg/kg/injection, schedule: Q01DX010 (ip), vehicle: saline): 30 % of control

SMILES: CCn1cnc2c(=S)nc[nH]c21
- T/C (dose: 62.5 mg/kg/injection, schedule: Q01DX010 (ip), vehicle: saline): 96 % of control and 79 % of control

SMILES: C[C@]12CC[C@H](OC3OC(CO)C(O)C(O)C3O)C[C@H]1CC[C@@H]1[C@@H]2CC[C@]2(C)[C@@H](C3=CCOC3=O)CC[C@]12O (stereo partly specified)
- T/C (dose: 0.13 mg/kg/injection, schedule: Q01DX010 (ip), vehicle: saline): 71 % of control
- T/C [2]: 96 % of control

SMILES: CCN(CC)CCNc1ccc(C)c2sc3ccccc3c(=O)c12
- T/C [3]: 76 % of control
- T/C [4]: 31 % of control and 43 % of control
- T/C [5]: 10 % of control and 29 % of control
- T/C [6]: 10 % of control

SMILES: CC/C(=C(/CC)c1ccc(O)cc1)c1ccc(O)cc1
- T/C [7]: 91 % of control and 96 % of control
- T/C (dose: 100.0 mg/kg/injection, schedule: Q01DX010 (sc), vehicle: steriod suspending solution): 22 % of control and 45 % of control

SMILES: NC(N)=NCCCC(N)C(=O)NCCCCCCNC(=O)C(N)CCCN=C(N)N (stereo unspecified)
- T/C [4]: 94 % of control
- T/C [5]: 85 % of control
- T/C [6]: 99 % of control
- T/C [8]: 90 % of control

SMILES: Nc1ncnc2c1ncn2C1OC(COCc2ccccc2)C(OCc2ccccc2)C1OCc1ccccc1 (stereo unspecified)
- T/C (dose: 10.0 mg/kg/injection, schedule: Q01DX010 (ip), vehicle: saline): 107 % of control and 115 % of control
- T/C (dose: 20.0 mg/kg/injection, schedule: Q01DX010 (ip), vehicle: saline): 92 % of control and 109 % of control
- T/C (dose: 40.0 mg/kg/injection, schedule: Q01DX010 (ip), vehicle: saline): 114 % of control and 89 % of control
- T/C (dose: 80.0 mg/kg/injection, schedule: Q01DX010 (ip), vehicle: saline): 93 % of control and 104 % of control

SMILES: C[C@]12CC[C@@H]3c4ccc(O)cc4CC[C@H]3[C@@H]1C[C@H](O)C2
- T/C [7]: 102 % of control
- T/C [1]: 95 % of control and 109 % of control
- T/C (dose: 50.0 mg/kg/injection, schedule: Q01DX010 (sc), vehicle: steriod suspending solution): 111 % of control and 112 % of control

SMILES: Nc1nc(=O)n(C2CC(O)C(CO)O2)cc1Br (stereo unspecified)
- T/C [5]: 81 % of control
- T/C [6]: 65 % of control
- T/C [8]: 39 % of control
- T/C (dose: 400.0 mg/kg/injection, schedule: Q01DX010 (ip), vehicle: saline): 29 % of control
- T/C (dose: 800.0 mg/kg/injection, schedule: Q01DX010 (ip), vehicle: saline): 7 % of control

SMILES: CCN(CC)CCCC(C)Nc1c2ccc(Cl)cc2nc2ccc(OC)cc12 (stereo unspecified)
- T/C [3]: 103 % of control
- T/C [4]: 103 % of control and 88 % of control
- T/C [5]: 81 % of control and 85 % of control
- T/C [6]: 61 % of control and 64 % of control

SMILES: NC1(C(=O)O)CCCC1
- T/C (dose: 22.5 mg/kg/injection, schedule: Q01DX010 (ip), vehicle: saline): 40 % of control and 48 % of control
- T/C (dose: 45.0 mg/kg/injection, schedule: Q01DX010 (ip), vehicle: saline): 21 % of control and 38 % of control
- T/C (dose: 90.0 mg/kg/injection, schedule: Q01DX010 (ip), vehicle: saline): 4 % of control

SMILES: CC(=O)OC(C)(C)/C=C/C(=O)[C@](C)(O)[C@H]1[C@H](O)C[C@@]2(C)[C@@H]3CC=C4[C@@H](CC[C@H](O)C4(C)C)[C@]3(CO)C(=O)C[C@]12C
- T/C (dose: 0.16 mg/kg/injection, schedule: Q01DX010 (ip), vehicle: saline): 109 % of control
- T/C [2]: 89 % of control
- T/C (dose: 0.38 mg/kg/injection, schedule: Q01DX010 (ip), vehicle: saline): 102 % of control
- T/C (dose: 0.57 mg/kg/injection, schedule: Q01DX010 (ip), vehicle: saline): 109 % of control
